Laboratory results taken from patent US20050070510A1, “Substituted tetracycline compounds as synergistic antifungal agents” (Paratek Pharmaceuticals, Inc., priority 2001, published 2005).

The molecules below were run on COS-1 cells (assay: In vitro mammalian cytotoxicity assay (Resazurin)).

SMILES | In Vitro Cytotoxicity
Cc1ccc(C#Cc2ccc(O)c3c2C[C@@]2(N)C[C@@]4(N)[C@H](N(C)C)C(O)=C(C(N)=O)C(=O)[C@@]4(C#N)C(O)=C2C3=O)cc1 [GI] | ** (toxicities less than 25 μg/mL are represented by **)
Cc1ccc(-c2ccc(O)c3c2C[C@@]2(N)C[C@@]4(N)[C@H](N(C)C)C(O)=C(C(N)=O)C(=O)[C@@]4(C#N)C(O)=C2C3=O)s1 [GJ] | ** (toxicities less than 25 μg/mL are represented by **)
CN(C)[C@@H]1C(O)=C(C(N)=O)C(=O)[C@@]2(C#N)C(O)=C3C(=O)c4c(O)ccc(-c5ccc(C(C)(C)C)cc5)c4C[C@@]3(N)C[C@@]12N [GK] | ** (toxicities less than 25 μg/mL are represented by **)
COc1ccc(Cl)cc1-c1ccc(O)c2c1C[C@@]1(N)C[C@@]3(N)[C@H](N(C)C)C(O)=C(C(N)=O)C(=O)[C@@]3(C#N)C(O)=C1C2=O [GL] | ** (toxicities less than 25 μg/mL are represented by **)
CN(C)[C@@H]1C(O)=C(C(N)=O)C(=O)[C@@]2(C#N)C(O)=C3C(=O)c4c(O)ccc(-c5ccccc5Cl)c4C[C@@]3(N)C[C@@]12N [GM] | ** (toxicities less than 25 μg/mL are represented by **)
Cc1csc(-c2ccc(O)c3c2C[C@@]2(N)C[C@@]4(N)[C@H](N(C)C)C(O)=C(C(N)=O)C(=O)[C@@]4(C#N)C(O)=C2C3=O)c1 [GN] | ** (toxicities less than 25 μg/mL are represented by **)
CN(C)[C@@H]1C(O)=C(C(N)=O)C(=O)[C@@]2(C#N)C(O)=C3C(=O)c4c(O)ccc(-c5ccco5)c4C[C@@]3(N)C[C@@]12N [GO] | ** (toxicities less than 25 μg/mL are represented by **)
CC(=O)Oc1cccc(-c2cc(N(C)C)c3c(c2O)C(=O)C2=C(O)[C@]4(C#N)C(=O)C(C(N)=O)=C(O)[C@@H](N(C)C)[C@]4(N)C[C@]2(N)C3)c1 [GP] | * (toxicities greater than >25 μg/ml are represented by *)
CN(C)[C@@H]1C(O)=C(C(N)=O)C(=O)[C@@]2(C#N)C(O)=C3C(=O)c4c(O)ccc(C#Cc5cccc(C#N)c5)c4C[C@@]3(N)C[C@@]12N [GQ] | * (toxicities greater than >25 μg/ml are represented by *)
CC(=O)c1ccc(O)c2c1C[C@@]1(N)C[C@@]3(N)[C@H](N(C)C)C(O)=C(C(N)=O)C(=O)[C@@]3(C#N)C(O)=C1C2=O [GR] | * (toxicities greater than >25 μg/ml are represented by *)
CN(C)[C@@H]1C(O)=C(C(N)=O)C(=O)[C@@]2(C#N)C(O)=C3C(=O)c4c(O)ccc(C#Cc5ccccc5F)c4C[C@@]3(N)C[C@@]12N [GS] | ** (toxicities less than 25 μg/mL are represented by **)
CC(=O)Nc1cccc(-c2ccc(O)c3c2C[C@@]2(N)C[C@@]4(N)[C@H](N(C)C)C(O)=C(C(N)=O)C(=O)[C@@]4(C#N)C(O)=C2C3=O)c1 [GT] | * (toxicities greater than >25 μg/ml are represented by *)
COc1cccc(C#Cc2ccc(O)c3c2C[C@@]2(N)C[C@@]4(N)[C@H](N(C)C)C(O)=C(C(N)=O)C(=O)[C@@]4(C#N)C(O)=C2C3=O)c1 [GU] | ** (toxicities less than 25 μg/mL are represented by **)
CN(C)[C@@H]1C(O)=C(C(N)=O)C(=O)[C@@]2(C#N)C(O)=C3C(=O)c4c(O)ccc(/C=C/c5ccc(Cl)cc5)c4C[C@@]3(N)C[C@@]12N [GV] | * (toxicities greater than >25 μg/ml are represented by *)
CCC(C)C#Cc1ccc(O)c2c1C[C@@]1(N)C[C@@]3(N)[C@H](N(C)C)C(O)=C(C(N)=O)C(=O)[C@@]3(C#N)C(O)=C1C2=O (stereo partly shown) [GW] | ** (toxicities less than 25 μg/mL are represented by **)
CCC(CC)CCc1ccc(O)c2c1C[C@@]1(N)C[C@@]3(N)[C@H](N(C)C)C(O)=C(C(N)=O)C(=O)[C@@]3(C#N)C(O)=C1C2=O [GX] | ** (toxicities less than 25 μg/mL are represented by **)
CN(C)CC(=O)Nc1ccc(C#Cc2ccc(O)c3c2C[C@@]2(N)C[C@@]4(N)[C@H](N(C)C)C(O)=C(C(N)=O)C(=O)[C@@]4(C#N)C(O)=C2C3=O)cc1 [GY] | * (toxicities greater than >25 μg/ml are represented by *)
CN(C)[C@@H]1C(O)=C(C(N)=O)C(=O)[C@@]2(C#N)C(O)=C3C(=O)c4c(O)ccc(C#CCc5ccccc5)c4C[C@@]3(N)C[C@@]12N [GZ] | ** (toxicities less than 25 μg/mL are represented by **)
Cc1ccc(/C=C/c2ccc(O)c3c2C[C@@]2(N)C[C@@]4(N)[C@H](N(C)C)C(O)=C(C(N)=O)C(=O)[C@@]4(C#N)C(O)=C2C3=O)cc1 [HA] | ** (toxicities less than 25 μg/mL are represented by **)
Cc1cc(C)cc(-c2cc(N(C)C)c3c(c2O)C(=O)C2=C(O)[C@]4(C#N)C(=O)C(C(N)=O)=C(O)[C@@H](N(C)C)[C@]4(N)C[C@]2(N)C3)c1 [HD] | ** (toxicities less than 25 μg/mL are represented by **)

SMILES | In Vitro Cytotoxicity
Cc1ncsc1/C=C/c1ccc(O)c2c1C[C@@]1(N)C[C@@]3(N)[C@H](N(C)C)C(O)=C(C(N)=O)C(=O)[C@@]3(C#N)C(O)=C1C2=O [HE] | ** (toxicities less than 25 μg/mL are represented by **)
CN(C)CCCc1ccc(O)c2c1C[C@@]1(N)C[C@@]3(N)[C@H](N(C)C)C(O)=C(C(=O)NC(C)(C)C)C(=O)[C@@]3(C#N)C(O)=C1C2=O [HH] | * (toxicities greater than >25 μg/ml are represented by *)
COCC#Cc1ccc(O)c2c1C[C@@]1(N)C[C@@]3(N)[C@H](N(C)C)C(O)=C(C(N)=O)C(=O)[C@@]3(C#N)C(O)=C1C2=O [HI] | * (toxicities greater than >25 μg/ml are represented by *)
CN(C)[C@@H]1C(O)=C(C(N)=O)C(=O)[C@@]2(C#N)C(O)=C3C(=O)c4c(O)ccc(/C=C/c5ccc(C(F)(F)F)cc5)c4C[C@@]3(N)C[C@@]12N [HK] | ** (toxicities less than 25 μg/mL are represented by **)
CN(C)[C@@H]1C(O)=C(C(N)=O)C(=O)[C@@]2(C#N)C(O)=C3C(=O)c4c(O)ccc(-c5cccc(CN6CCCC6)c5)c4C[C@@]3(N)C[C@@]12N [HL] | * (toxicities greater than >25 μg/ml are represented by *)
CN(C)[C@@H]1C(O)=C(C(N)=O)C(=O)[C@@]2(C#N)C(O)=C3C(=O)c4c(O)ccc(-c5ccc(CN6CCCC6)cc5)c4C[C@@]3(N)C[C@@]12N [HM] | * (toxicities greater than >25 μg/ml are represented by *)
CN(C)[C@@H]1C(O)=C(C(N)=O)C(=O)[C@@]2(C#N)C(O)=C3C(=O)c4c(O)ccc(-c5cccc(CNCc6ccccc6)c5)c4C[C@@]3(N)C[C@@]12N [HN] | ** (toxicities less than 25 μg/mL are represented by **)
CN(C)[C@@H]1C(O)=C(C(N)=O)C(=O)[C@@]2(C#N)C(O)=C3C(=O)c4c(O)ccc(C#Cc5ccc(NS(C)(=O)=O)cc5)c4C[C@@]3(N)C[C@@]12N [HO] | ** (toxicities less than 25 μg/mL are represented by **)
CN(C)[C@@H]1C(O)=C(C(N)=O)C(=O)[C@@]2(C#N)C(O)=C3C(=O)c4c(O)ccc(-c5ccc(CNCc6ccccc6)cc5)c4C[C@@]3(N)C[C@@]12N [HP] | ** (toxicities less than 25 μg/mL are represented by **)
CN(C)Cc1cccc(-c2ccc(O)c3c2C[C@@]2(N)C[C@@]4(N)[C@H](N(C)C)C(O)=C(C(N)=O)C(=O)[C@@]4(C#N)C(O)=C2C3=O)c1 [HQ] | * (toxicities greater than >25 μg/ml are represented by *)
CN(C)Cc1ccc(-c2ccc(O)c3c2C[C@@]2(N)C[C@@]4(N)[C@H](N(C)C)C(O)=C(C(N)=O)C(=O)[C@@]4(C#N)C(O)=C2C3=O)cc1 [HR] | * (toxicities greater than >25 μg/ml are represented by *)
CN(C)[C@@H]1C(O)=C(C(N)=O)C(=O)[C@@]2(C#N)C(O)=C3C(=O)c4c(O)ccc(-c5cccc(CN6CCOCC6)c5)c4C[C@@]3(N)C[C@@]12N [HS] | * (toxicities greater than >25 μg/ml are represented by *)
CN(C)[C@@H]1C(O)=C(C(N)=O)C(=O)[C@@]2(C#N)C(O)=C3C(=O)c4c(O)ccc(-c5ccc(CN6CCOCC6)cc5)c4C[C@@]3(N)C[C@@]12N [HT] | * (toxicities greater than >25 μg/ml are represented by *)
COc1ccc(CN2CCOCC2)cc1-c1ccc(O)c2c1C[C@@]1(N)C[C@@]3(N)[C@H](N(C)C)C(O)=C(C(N)=O)C(=O)[C@@]3(C#N)C(O)=C1C2=O [HU] | * (toxicities greater than >25 μg/ml are represented by *)
COc1cccc(C/C=C\c2ccc(O)c3c2C[C@@]2(N)C[C@@]4(N)[C@H](N(C)C)C(O)=C(C(N)=O)C(=O)[C@@]4(C#N)C(O)=C2C3=O)c1OC [HV] | ** (toxicities less than 25 μg/mL are represented by **)
COc1cc(C/C=C\c2ccc(O)c3c2C[C@@]2(N)C[C@@]4(N)[C@H](N(C)C)C(O)=C(C(N)=O)C(=O)[C@@]4(C#N)C(O)=C2C3=O)ccc1O [HW] | ** (toxicities less than 25 μg/mL are represented by **)
CN(C)[C@@H]1C(O)=C(C(N)=O)C(=O)[C@@]2(C#N)C(O)=C3C(=O)c4c(cc(Br)c(N)c4O)[C@H](N)[C@@]3(N)[C@H](O)[C@@]12N [HY] | * (toxicities greater than >25 μg/ml are represented by *)
CN(C)c1cc(C#CC(=O)O)c(O)c2c1C[C@@]1(N)C[C@@]3(N)[C@H](N(C)C)C(O)=C(C(N)=O)C(=O)[C@@]3(C#N)C(O)=C1C2=O [HZ] | * (toxicities greater than >25 μg/ml are represented by *)
CN(C)c1cc(NC(=O)Nc2cccc3ccccc23)c(O)c2c1C[C@@]1(N)C[C@@]3(N)[C@H](N(C)C)C(O)=C(C(N)=O)C(=O)[C@@]3(C#N)C(O)=C1C2=O [IA] | * (toxicities greater than >25 μg/ml are represented by *)
CN(C)c1cc(NC(=O)Nc2ccccc2)c(O)c2c1C[C@@]1(N)C[C@@]3(N)[C@H](N(C)C)C(O)=C(C(N)=O)C(=O)[C@@]3(C#N)C(O)=C1C2=O [IB] | * (toxicities greater than >25 μg/ml are represented by *)
